According to US10450549B2, “Aryloxyphenoxypropionate tolerance in turfrgass species and use of AAD1 as a selectable marker” (Dow AgroSciences, LLC, priority 2004, dated 2019):

Experiments:
[1] = tested on: homozygous T4 lines of Arabidopsis; test: 2,4-D injury and AAD1 (v3) expression in homozygous T4 Arabidopsis lines; type: in vivo, Arabidopsis thaliana; conditions: 800 g ae/ha and above; 14 DAT
Description: An experiment was designed to examine if the level of AAD1 (v3) expression in Arabidopsis varies at different growth stages. A high-tolerance, homozygous, AAD1 (v3) T4 line (id=PAAD1.01.345.163) was grown in greenhouse. […] Two leaves, the 3rd leaf from the top and the 5th leaf from the bottom, were harvested from 5 plants, both treated and untreated, and analyzed by ELISA and Western Blotting (as described in Example 11) experiments at 4, 10, 14, 20 and 25 DAT. […] The protein levels accumulated in older plants with some significant protein degradation at the later time points.
These plants also expressed high level of AAD1 (v3), from 0.1 to 0.25% of (FIG. 9B). On the contrary, the low tolerance line expressed less than 0.1% of AAD1 (v3) in TSP and suffered observable injury.

pDAS1421 T0 corn = test: Whole plant quizalofop screening of T0 corn lineages containing AAD1 (v3) and AHAS (pDAS1421); type: in vivo; conditions: number of lineages
Description: Seventy-two Agrobacterium-transformed events were selected on various levels of R-haloxyfop acid and R-cyhalofop acid in vitro. Twenty-two callus samples were analyzed by Southern blot analysis for stable integration of AAD1 (v3) into the genome as described previously.
A minimum six regenerated clonal lineages per event were moved to soil in the greenhouse and screened using a track sprayer as previously described to apply 35 g ae/ha quizalofop when 2-4 new, normal leaves had emerged (see section 8.3.3). Presence of AAD1 protein on a Western blot correlated perfectly with herbicide resistance in the T0 generation regardless of which AOPP herbicide was used for selection. There is no negative impact of the second HTC gene (AHAS) on the function of the AAD1 (v3).

[2] = tested on: AAD1-transformed T0 ‘Crenshaw’ creeping bentgrass events (pDAB3878, pDAB5042); test: Quizalofop-p-ethyl postemergence on AAD1-transformed T0 Crenshaw creeping bentgrass, visual % injury; type: in vivo, Agrostis stolonifera L. var. palustris
Description: After molecular confirmation was utilized to identify transgenic events, a number of transgenic events were tested for herbicide tolerance. Specific isolated transgenic events were selected and maintained vegetatively through division of the crowns and replanting the clonal pieces into fresh growth medium. Clonally propagated plants were maintained by periodic “mowing” of vegetative tissues.
Growth medium was prepared by mixing Promix® and sand in a 2 to 1 ratio. The medium was contained in plastic pots with a surface area of 84.6 square centimeters (cm^2). When required to maintain plant health, a fungicide, insecticide, and/or other chemical or physical treatment was applied to stock plants. The plants were maintained in a greenhouse with an approximate 14 hour photoperiod which was maintained at 24-27° C. during the day and 22-25° C. during the night. Nutrients (Peters Excel® 15-5-15 5-Ca 2-Mg and iron chelate) were applied in the irrigation solution as needed, and water was added on a regular basis. Supplemental lighting was provided with overhead metal halide 1000-Watt lamps when photosynthetically active radiation (PAR) dropped below 500.
Selected T0 plants were sprayed with quizalofop-p-ethyl (Assure II®, DUPONT, Wilmington, Del.) at rates ranging from 60 to 2,240 g ae/ha. […] This rate also controls susceptible monocot weed species. Measured amounts were placed individually in 25 mL glass vials and dissolved in a 4 mL volume of 1.0% (v/v) Agri-Dex® Crop Oil Concentrate (COC) from HELENA CHEMICAL (Collierville, Tenn.). Application solutions were prepared by serial dilution of the highest rate applied. One-half the volume of the highest rate stock solution (2 mL) was transferred to a clean 25 mL vial containing an equal volume of 1% COC and the diluted solution was mixed. Additional dilutions were prepared similarly by removing one-half the volume of the previous concentration (2 mL), and adding to an equal volume of 1% COC and mixing. When preparing the lowest concentration, the remaining one-half volume was discarded. All 2 mL stock solutions were further diluted by adding 10 mL aqueous mixture of 1.0% (v/v) COC, so that the final spray solutions were 12 mL in volume and contained 1.0% (v/v) COC.
Spray solutions were applied to the plant material with an overhead Mandel™ track sprayer equipped with a 8002E nozzles calibrated to deliver 187 L/ha over an application area of 0.503 square meters (m^2) at a spray height of 18 inches (46 cm) above average plant canopy height. Control plants were sprayed in the same manner with the COC blank.
The treated plants and control plants were placed in a greenhouse, and watered by sub-irrigation to prevent wash-off of the test compounds. At various times after application, the condition of the test plants as compared with that of the untreated plants was determined visually and scored on a scale of 0 to 100 percent (where 0 corresponds to no injury or growth inhibition and 100 corresponds to complete kill). Regenerated, non-transformed (NT) ‘Crenshaw’ or elite line 2905-2 creeping bentgrass plants and/or seed-derived clonally propagated plants served as quizalofop sensitive controls.

O=C(O)COc1ccc(Cl)cc1Cl [2,4-D, 2,4-dichlorophenoxyacetic acid] was tested, and the “response of control plants” value [1] was “died”.

C[C@@H](Oc1ccc(Oc2cnc3cc(Cl)ccc3n2)cc1)C(=O)O [quizalofop] was tested, and the “Assessment of T0 lineages resistant to 35 g ae/ha quizalofop: Resistant” value (from here on “Assessment … to 35 g ae/ha quizalofop: Resistant”) (pDAS1421 T0 corn; event 1421[3]-036) was 8, the “Assessment of T0 lineages resistant to 35 g ae/ha quizalofop: Sensitive” value (shortened to “Assessment of T0 lineages resistant … Sensitive”) (pDAS1421 T0 corn; event 1421[3]-036) was 0 and the “Assessment … to 35 g ae/ha quizalofop: Resistant” value (pDAS1421 T0 corn; event 1421[4]-031) was 9. The “Assessment of T0 lineages resistant … Sensitive” value (pDAS1421 T0 corn; event 1421[4]-031) was 0, the “Assessment … to 35 g ae/ha quizalofop: Resistant” value (pDAS1421 T0 corn; event 1421[4]-032) was 8 and the “Assessment of T0 lineages resistant … Sensitive” value (pDAS1421 T0 corn; event 1421[4]-032) was 0. The “Assessment … to 35 g ae/ha quizalofop: Resistant” value (pDAS1421 T0 corn; event 1421[4]-033) was 12, the “Assessment of T0 lineages resistant … Sensitive” value (pDAS1421 T0 corn; event 1421[4]-033) was 0 and the “Assessment … to 35 g ae/ha quizalofop: Resistant” value (pDAS1421 T0 corn; event 1421[4]-034) was 8. For the same compound, the “Assessment of T0 lineages resistant … Sensitive” value (pDAS1421 T0 corn; event 1421[4]-034) was 0, the “Assessment … to 35 g ae/ha quizalofop: Resistant” value (pDAS1421 T0 corn; event 1421[4]-035) was 6 and the “Assessment of T0 lineages resistant … Sensitive” value (pDAS1421 T0 corn; event 1421[4]-035) was 0. The “Assessment … to 35 g ae/ha quizalofop: Resistant” value (pDAS1421 T0 corn; event 1421[21]-016) was 8, the “Assessment of T0 lineages resistant … Sensitive” value (pDAS1421 T0 corn; event 1421[21]-016) was 0 and the “Assessment … to 35 g ae/ha quizalofop: Resistant” value (pDAS1421 T0 corn; event 1421[22]-020) was 8. For the same compound, the “Assessment of T0 lineages resistant … Sensitive” value (pDAS1421 T0 corn; event 1421[22]-020) was 0, the “Assessment … to 35 g ae/ha quizalofop: Resistant” value (pDAS1421 T0 corn; event 1421[22]-022) was 8 and the “Assessment of T0 lineages resistant … Sensitive” value (pDAS1421 T0 corn; event 1421[22]-022) was 0. For the same compound, the “Assessment … to 35 g ae/ha quizalofop: Resistant” value (pDAS1421 T0 corn; event 1421[22]-023) was 8, the “Assessment of T0 lineages resistant … Sensitive” value (pDAS1421 T0 corn; event 1421[22]-023) was 0 and the “mean injury, pDAB5042 Crenshaw events” value ([2]; 60, 120, 240 and 480 g ae/ha, 21 to 24 DAA) was “less than 10%”. The “mean injury, pDAB3878 Crenshaw events” value ([2]; 120 g ae/ha, 11 DAA) was “about 20%”, the “mean injury, pDAB3878 Crenshaw events” value ([2]; 120 g ae/ha, 14 DAA) was “about 25%” and the “mean injury, pDAB3878 Crenshaw events” value ([2]; 120 g ae/ha, 20 DAA) was “about 20%”. The “mean injury, pDAB3878 Crenshaw events” value ([2]; 480 g ae/ha, 11 DAA) was about 30%, the “mean injury, pDAB3878 Crenshaw events” value ([2]; 480 g ae/ha, 14 DAA) was about 30% and the “mean injury, pDAB3878 Crenshaw events” value ([2]; 480 g ae/ha, 20 DAA) was “about 20%”. The “injury of individual pDAB5042 Crenshaw events” value ([2]; 480 g ae/ha, 21-24 DAA, all events except 204 and 227) was at most 20%.
